Literature values, collected in article PMC6311693 (ACS Central Science, 2018).

Conditions: 8 mg/kg; musculoskeletal system, increases in creatine phosphokinase

## CCCCCCCCCC(=O)N[C@@H](Cc1c[nH]c2ccccc12)C(=O)N[C@H](CC(N)=O)C(=O)N[C@@H](CC(=O)O)C(=O)N[C@@H]1C(=O)NCC(=O)N[C@@H](CCCN)C(=O)N[C@@H](CC(=O)O)C(=O)N[C@H](C)C(=O)N[C@@H](CC(=O)O)C(=O)NCC(=O)N[C@H](CO)C(=O)N[C@@H]([C@H](C)CC(=O)O)C(=O)N[C@@H](CC(=O)c2ccccc2N)C(=O)O[C@@H]1C [daptomycin]
  adverse effects in phase 1 clinical trials: unacceptable adverse effects
